# Experimental data published in patent publication US12146142B2, “Methods for improving genome engineering and regeneration in plant II” (KWS SAAT SE & Co. KGaA, priority 2018, dated 2024).
# Tests used:
# maize genotype A188 = assay: Regeneration of transgenic plants after stable integration of boost gene constructs including Pat-Tdt; format: cell-based; conditions: construct including Pat-Tdt
# From the text: This strong boost effect on the level of the embryo was also effective to the efficiency of regeneration of whole transgenic plant.
# [1] = system: maize A188 immature embryos; assay: Embryogenic structure induction after transient co-bombardment of boost gene constructs; format: cell-based; conditions: 1 month after bombardment, co-bombarded with Tdt (FIG. 12)
# Experimental: At 9-12 days post pollination, maize ears (i.e. A188 or Hi II) with immature embryos having a size of 0.8 to 1.8 mm, preferably 1.0-1.5 mm, were harvested. The ears were sterilized with 70% ethanol for 10-15 minutes. After brief air drying in a laminar hood, the top ˜⅓ of the kernels were removed from the ears with a shark scalpel, and the immature embryos were pulled out of the kernels carefully with a spatula. The fresh isolated embryos were placed onto the bombardment target area in an osmotic medium plate (see below) with scutellum-side up. The plates were wrapped with parafilm and incubated at 25° C. in the dark for 4 hours before bombardment. […]
# After bombardment, the embryos remained on the osmotic medium for another 16 hours. Transient transformation was examined using a fluorescence microscope for the tDT expression at excitation maximum 554 nm and emission maximum 581 nm 16-20 hours after bombardment. The embryos with dense fluorescent signals under a fluorescence microscope (FIG. 9) were selected and transferred from N6OSM onto a N6-5Ag plate (˜15 embryos per plate) with scutellum-face-up for callus induction (see below). […]
# The embryos with dense fluorescent signals under a fluorescence microscope (FIG. 9) were selected and transferred from N6OSM onto N6-5Ag for embryonic callus induction. […] Embryogenic callus induction was monitored by observation under a dissection microscope. […]
# maize A188 plants = assay: Phenotype of adult plants regenerated from stable transformation of A188; format: in vivo; conditions: stable transgenic integration, A188, compared to normal A188 plants (FIG. 13)
# maize Hi II genotype = assay: Stable transformation of boost gene in Hi II genotype and appearance of the transgenic plants; format: in vivo
# From the text: Stable transformation of ZmPLT7 gene in Hi II genotype was successful.
# [2] = system: maize Hi II immature embryos; assay: Stable transformation frequency of co-delivered tDT report gene without selection; format: cell-based; conditions: transient expression, 10 days after co-bombardment
# Experimental: Maize embryo preparation, transient bombardment, and embryonic callus induction are described in Examples 1 and 2. The embryos were cultured in N6-5Ag medium at 27° C. in the dark for 14 days. tDT fluorescence was used to monitor embryogenic callus induction and stable transformation by observation under a fluorescent microscope. Specifically, the boost effect was measured by its capability to increase transformation frequency (TF) of the tDT report gene […] after bombardment without a selection.
# The strong and uniformed tDT fluorescent signals from the emerging embryonic structures in FIG. 14 indicated integration and stable transformation of tDT gene. Stable transformation frequency is defined as the number of embryos with at least one stable tDT fluorescent structures induced from 100 embryos initially used. Stable transformation frequency was measured 10 days after bombardment.
# maize WUS2 promoter = assay: Maize WUS2 promoter tDT report construct co-bombarded with boost factor; format: cell-based; conditions: for activation of maize WUS2 promoter / gene: transient co-bombardment in immature embryos and leaves
# From the text: Homeobox domain transcriptional factor WUSCHEL (WUS) plays an important role in establishing and maintaining of shoot meristem. To identify boost factors that promote endogenous WUS2 expression, the maize WUSCHEL 2 promoter report construct (pAMK-ZmWUS2-tDT-noT) (SEQ ID NO: 29; FIG. 16) was used to illustrate maize WUS2 promoter activity. The maize WUS2 promoter (pZmWUS2) drove expression of the tDT report gene in this report construct (FIG. 16). The WUS2 promoter report construct was co-bombarded with boost factors individually in maize immature embryos and leaf segments.
# Fresh leaf segments of 1-2 cm in length were prepared from the in vitro-cultured maize A188 seedling of 10-14 days old, and placed on the Osmotic medium with abaxial side up for 4 hours. For co-bombardment, two plasmids (100 ng of ZmWUS2 promoter report (FIG. 16) and 100 ng of boost construct, e.g. TaRKD4 (FIG. 5)) were premixed and coated onto 100 μg of gold particles size 0.4 μm. Immature embryo preparation, bombardment, and post-bombardment culturing were carried out as described in Example 1 and Example 2. Red fluorescence showing tDT expression was monitored using a fluorescent microscope started at 16 hours after bombardment.
# [3] = A188 leaf segments, after bombardment, co-bombarded with pZmWUS2 report
Substance,efficiency of regeneration of transgenic plants (maize genotype A188),quantification of embryonic structures with Tdt formation per embryo [1],phenotype of produced transgenic plants (maize A188 plants),stable transformation of the boost gene (maize Hi II genotype),"appearance of transgenic plants (maize Hi II genotype; single construct, compared to normal A188 plants (FIG. 15))",effect on stable transformation of co-delivered tDT report gene [2],time at which tDT signal peaked (maize WUS2 promoter; [3]),time at which tDT signal was detected (maize WUS2 promoter; [3]),"tDT red fluorescent signal (maize WUS2 promoter; immature embryos, 44 hours after bombardment, compared to WUS promoter reporter only (weak signals))",activation of maize WUS2 promoter / gene (maize WUS2 promoter),activation of maize WUS2 promoter / gene (maize WUS2 promoter; listed as TaRKD4)
ZmWUS2: maize WUS2 gene expression construct driven by strong constitutive Brachypodium EF1 promoter (SEQ ID NO: 28; cDNA SEQ ID NO: 1),transgenic plants at a low level of efficiency,slightly increased amount/development of embryonic structures per embryo,without any detrimental phenotype,–,–,–,–,–,–,–,–
ZmPLT7: maize PLT7 gene expression construct driven by strong constitutive Brachypodium EF1 promoter (SEQ ID NO: 27; cDNA SEQ ID NO: 3),no transgenic plants have been produced successfully,slightly increased amount/development of embryonic structures per embryo,–,successful,comparable appearance than the normal A188 maize plants,promotes stable transformation frequency,–,–,–,–,–
"wheat RKD4: wheat RKD4 gene, maize-codon optimized, expression construct driven by Brachypodium EF1 promoter (SEQ ID NO: 34)",–,–,–,–,–,–,around 44 hours,around 36 hours,extremely strong red fluorescent signals,strongly activate maize WUS2 genes,activates maize WUS2 promoter
